Measurements as given in ChEMBL document CHEMBL5537166, “PROTACs Targeting BRM (SMARCA2) Afford Selective In Vivo Degradation over BRG1 (SMARCA4) and Are Active in BRG1 Mutant Xenograft Tumor Models” (J Med Chem, 2024).
pIC50, pKd: −log10 of the molar value. Active and inactive are the calls of the source. The rule behind the calls is not given here.

What was measured:
[1] = molecular target: T1, SWI/SNF-related matrix-associated actin-dependent regulator of chromatin subfamily A member 2 (Homo sapiens, UniProt P51531); assay: Binding affinity to his-tagged BRM bromodomain (unknown origin) assessed as dissociation constant
[2] = system: NCI-H1944; assay: Antiproliferative activity against BRM-dependent human NCI-H1944 cells assessed as growth inhibition incubated for 7 days by celltiter glo 2.0 assay; type: functional; details: NCI-H1944, 168 h, time 7 day
[3] = Metabolic stability in human liver microsome assessed as hepatic extraction ratio measured upto 60 mins by LC-MS/MS analysis; type: ADME; details: liver microsomes
[4] = molecular target: von Hippel-Lindau disease tumor suppressor/SWI/SNF-related matrix-associated actin-dependent regulator of chromatin subfamily A member 4 (Homo sapiens, UniProt P51532+P40337); assay: PROTAC activity at VHL/ BRG1 in human SW1573 cells assessed as induction of BRG1 degradation incubated for 22 hrs by Western blotting analysis; type: cell-based
[5] = Drug concentration in mouse tumor at 20 mg/kg, ip measured for 96 hrs; type: ADME, organism-based, Neoplasm; details: read-out: Ct
[6] = Half life in mouse at 1 mg/kg, iv measured upto 60 mins by LC-MS/MS analysis; type: ADME, organism-based; details: in vivo
[7] = species: Homo sapiens; assay: Ratio of DC50 for VHL/ BRG1 in human SW1573 cells to DC50 for VHL/BRM in human SW1573 cells; type: cell-based
[8] = Clearance in mouse at 1 mg/kg, iv measured upto 60 mins by LC-MS/MS analysis; type: ADME, organism-based; details: in vivo, 1 h
[9] = system: Mus musculus; assay: In-vivo PROTAC activity at BRM/VHL in CD-1 mouse xenografted with Murine stromal cell line at 20 mg/kg, iv measured for 96 hrs; type: functional
[10] = Drug concentration in mouse plasma measured for 24 hrs; type: ADME, cell-free
[11] = Plasma protein binding in mouse incubated for 15 mins by LC-MS/MS analysis; type: ADME, cell-free; details: read-out: PPB (converted)
[12] = system: Calu-6; assay: Antiproliferative activity against human Calu-6 cells assessed as growth inhibition incubated for 7 days by celltiter glo 2.0 assay; type: functional; details: Calu-6, 168 h, time 7 day
[13] = molecular target: T2, von Hippel-Lindau disease tumor suppressor/SWI/SNF-related matrix-associated actin-dependent regulator of chromatin subfamily A member 2 (Homo sapiens, UniProt P51531+P40337); assay: PROTAC activity at VHL/BRM in human SW1573 cells assessed as induction of […] incubated for 22 hrs by Western blotting analysis; type: cell-based
Target sequence in this assay (P51531 whole entry): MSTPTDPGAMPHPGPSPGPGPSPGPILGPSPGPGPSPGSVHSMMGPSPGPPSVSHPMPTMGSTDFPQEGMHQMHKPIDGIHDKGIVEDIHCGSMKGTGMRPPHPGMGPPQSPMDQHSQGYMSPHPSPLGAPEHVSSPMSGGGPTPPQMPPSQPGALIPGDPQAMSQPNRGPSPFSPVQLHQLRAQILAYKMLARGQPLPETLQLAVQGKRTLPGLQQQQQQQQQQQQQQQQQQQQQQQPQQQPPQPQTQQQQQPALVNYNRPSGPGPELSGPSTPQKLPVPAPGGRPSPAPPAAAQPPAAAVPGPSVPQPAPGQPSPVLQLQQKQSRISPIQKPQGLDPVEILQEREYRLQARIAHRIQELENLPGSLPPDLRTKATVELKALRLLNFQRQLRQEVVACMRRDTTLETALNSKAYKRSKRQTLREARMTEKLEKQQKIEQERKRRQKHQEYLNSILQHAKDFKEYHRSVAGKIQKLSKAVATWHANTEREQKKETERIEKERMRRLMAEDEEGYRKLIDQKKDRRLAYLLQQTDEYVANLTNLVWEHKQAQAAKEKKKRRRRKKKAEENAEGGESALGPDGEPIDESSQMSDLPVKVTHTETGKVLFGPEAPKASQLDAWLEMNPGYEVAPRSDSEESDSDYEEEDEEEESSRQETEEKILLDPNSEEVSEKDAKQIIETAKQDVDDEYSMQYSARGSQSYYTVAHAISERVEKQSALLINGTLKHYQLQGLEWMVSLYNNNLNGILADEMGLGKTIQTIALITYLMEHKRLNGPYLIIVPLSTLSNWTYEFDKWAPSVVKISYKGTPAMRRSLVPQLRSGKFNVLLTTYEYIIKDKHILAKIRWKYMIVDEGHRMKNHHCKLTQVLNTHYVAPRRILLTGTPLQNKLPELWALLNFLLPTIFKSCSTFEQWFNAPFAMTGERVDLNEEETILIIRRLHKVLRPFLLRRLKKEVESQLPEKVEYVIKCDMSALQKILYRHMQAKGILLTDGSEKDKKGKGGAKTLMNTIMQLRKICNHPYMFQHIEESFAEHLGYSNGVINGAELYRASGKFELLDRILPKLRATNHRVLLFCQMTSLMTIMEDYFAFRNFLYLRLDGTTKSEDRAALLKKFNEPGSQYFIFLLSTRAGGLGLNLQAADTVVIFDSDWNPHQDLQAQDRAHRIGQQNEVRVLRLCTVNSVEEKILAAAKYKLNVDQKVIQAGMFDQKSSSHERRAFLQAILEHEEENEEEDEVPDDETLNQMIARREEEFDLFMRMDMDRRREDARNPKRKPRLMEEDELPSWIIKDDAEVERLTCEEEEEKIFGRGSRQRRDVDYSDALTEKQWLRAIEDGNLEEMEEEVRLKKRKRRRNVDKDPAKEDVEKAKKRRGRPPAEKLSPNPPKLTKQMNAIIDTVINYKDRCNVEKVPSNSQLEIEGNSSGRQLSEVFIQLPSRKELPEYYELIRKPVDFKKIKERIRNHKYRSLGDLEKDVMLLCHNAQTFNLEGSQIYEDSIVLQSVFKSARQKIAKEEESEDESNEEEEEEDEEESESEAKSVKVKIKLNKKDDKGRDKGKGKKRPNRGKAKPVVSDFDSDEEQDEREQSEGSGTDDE
Target sequence in this assay (P40337 whole entry): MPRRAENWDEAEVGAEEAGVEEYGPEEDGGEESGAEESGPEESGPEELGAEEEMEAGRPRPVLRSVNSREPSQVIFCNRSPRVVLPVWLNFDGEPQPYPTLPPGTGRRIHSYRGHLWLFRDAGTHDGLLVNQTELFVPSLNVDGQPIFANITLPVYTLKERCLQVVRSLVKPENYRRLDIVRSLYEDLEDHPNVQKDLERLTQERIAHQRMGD

[14] = system: Mus musculus; assay: In-vivo PROTAC activity at BRM/VHL in CD-1 mouse xenografted with human HCC2302 cells at 20 mg/kg, iv measured for 96 hrs; type: functional
[15] = molecular target: T1, SWI/SNF-related matrix-associated actin-dependent regulator of chromatin subfamily A member 2; assay: Binding affinity to his-tagged BRM bromodomain (unknown origin) by alpha-LISA assay
[16] = molecular target: T2, von Hippel-Lindau disease tumor suppressor/SWI/SNF-related matrix-associated actin-dependent regulator of chromatin subfamily A member 2
Target sequence in this assay (P40337 whole entry, looked up): as the sequence (P40337 whole entry) above
Target sequence in this assay (P51531 whole entry, looked up): as the sequence (P51531 whole entry) above

[17] = species: Homo sapiens; assay: Ratio of binding affinity to VHL/BRM bromodomain (unknown origin) assessed as ternary complex association half life by SPR analysis to binding affinity to VHL/ BRG1 bromodomain (unknown origin) assessed as ternary complex association half life by SPR analysis
[18] = molecular target: Urokinase-type plasminogen activator (Homo sapiens) (UniProt P00749); assay: Induction of PLAU degradation in human SW1573 cells at 100 nM incubated for 8 hrs by proteomics analysis; type: cell-based
[19] = Toxicity in CD-1 mouse xenografted with BRM-dependent human HCC2302 cells assessed as animal survival at 10 mg/kg, ip measured at 15 days; type: organism-based; details: in vivo, 360 h, time 15 day
[20] = molecular target: Protein polybromo-1 (Homo sapiens) (UniProt Q86U86); assay: Induction of PBRM1 degradation in human SW1573 cells at 100 nM incubated for 8 hrs by proteomics analysis; type: cell-based
[21] = system: SW1573; assay: Induction of PALS1 degradation in human SW1573 cells at 100 nM incubated for 8 hrs by proteomics analysis; type: cell-based
[22] = Toxicity in CD-1 mouse xenografted with BRM-dependent human HCC2302 cells assessed as animal death at 10 to 30 mg/kg, ip measured at 9 to 13 days; type: organism-based; details: in vivo, dose lower 10 mg/kg, time lower 9 day, dose upper 30 mg/kg, time upper 13 day
[23] = molecular target: MAP kinase-activated protein kinase 3 (Homo sapiens) (UniProt Q16644); assay: Induction of MAPKAPK3 degradation in human SW1573 cells at 100 nM incubated for 8 hrs by proteomics analysis; type: cell-based
[24] = Toxicity in CD-1 mouse xenografted with BRM-dependent human HCC2302 cells assessed as body weight loss at 10 to 30 mg/kg, ip administered once daily for 11 days; type: organism-based; details: in vivo, 264 h, dose 10-30 mg/kg, time 11 day
[25] = Toxicity in CD-1 mouse xenografted with BRM-dependent human HCC2302 cells assessed as tolerability at 10 mg/kg, ip measured at 15 days; type: organism-based; details: in vivo, 360 h, time 15 day
[26] = system: HCC2302; assay: Antitumor activity against human BRM-dependent HCC2302 cells xenografted in CD-1 mouse assessed as reduction in tumor growth at 10 to 30 mg/kg, ip administered once daily for 11 days; type: functional, organism-based; details: dose 10-30 mg/kg, time 11.0 day
[27] = system: SW1573; assay: Induction of PATJ degradation in human SW1573 cells at 100 nM incubated for 8 hrs by proteomics analysis; type: cell-based

T1 sequence (P51531 whole entry): as above
von Hippel-Lindau disease tumor suppressor/SWI/SNF-related matrix-associated actin-dependent regulator of chromatin subfamily A member 4, sequence (P51532 whole entry): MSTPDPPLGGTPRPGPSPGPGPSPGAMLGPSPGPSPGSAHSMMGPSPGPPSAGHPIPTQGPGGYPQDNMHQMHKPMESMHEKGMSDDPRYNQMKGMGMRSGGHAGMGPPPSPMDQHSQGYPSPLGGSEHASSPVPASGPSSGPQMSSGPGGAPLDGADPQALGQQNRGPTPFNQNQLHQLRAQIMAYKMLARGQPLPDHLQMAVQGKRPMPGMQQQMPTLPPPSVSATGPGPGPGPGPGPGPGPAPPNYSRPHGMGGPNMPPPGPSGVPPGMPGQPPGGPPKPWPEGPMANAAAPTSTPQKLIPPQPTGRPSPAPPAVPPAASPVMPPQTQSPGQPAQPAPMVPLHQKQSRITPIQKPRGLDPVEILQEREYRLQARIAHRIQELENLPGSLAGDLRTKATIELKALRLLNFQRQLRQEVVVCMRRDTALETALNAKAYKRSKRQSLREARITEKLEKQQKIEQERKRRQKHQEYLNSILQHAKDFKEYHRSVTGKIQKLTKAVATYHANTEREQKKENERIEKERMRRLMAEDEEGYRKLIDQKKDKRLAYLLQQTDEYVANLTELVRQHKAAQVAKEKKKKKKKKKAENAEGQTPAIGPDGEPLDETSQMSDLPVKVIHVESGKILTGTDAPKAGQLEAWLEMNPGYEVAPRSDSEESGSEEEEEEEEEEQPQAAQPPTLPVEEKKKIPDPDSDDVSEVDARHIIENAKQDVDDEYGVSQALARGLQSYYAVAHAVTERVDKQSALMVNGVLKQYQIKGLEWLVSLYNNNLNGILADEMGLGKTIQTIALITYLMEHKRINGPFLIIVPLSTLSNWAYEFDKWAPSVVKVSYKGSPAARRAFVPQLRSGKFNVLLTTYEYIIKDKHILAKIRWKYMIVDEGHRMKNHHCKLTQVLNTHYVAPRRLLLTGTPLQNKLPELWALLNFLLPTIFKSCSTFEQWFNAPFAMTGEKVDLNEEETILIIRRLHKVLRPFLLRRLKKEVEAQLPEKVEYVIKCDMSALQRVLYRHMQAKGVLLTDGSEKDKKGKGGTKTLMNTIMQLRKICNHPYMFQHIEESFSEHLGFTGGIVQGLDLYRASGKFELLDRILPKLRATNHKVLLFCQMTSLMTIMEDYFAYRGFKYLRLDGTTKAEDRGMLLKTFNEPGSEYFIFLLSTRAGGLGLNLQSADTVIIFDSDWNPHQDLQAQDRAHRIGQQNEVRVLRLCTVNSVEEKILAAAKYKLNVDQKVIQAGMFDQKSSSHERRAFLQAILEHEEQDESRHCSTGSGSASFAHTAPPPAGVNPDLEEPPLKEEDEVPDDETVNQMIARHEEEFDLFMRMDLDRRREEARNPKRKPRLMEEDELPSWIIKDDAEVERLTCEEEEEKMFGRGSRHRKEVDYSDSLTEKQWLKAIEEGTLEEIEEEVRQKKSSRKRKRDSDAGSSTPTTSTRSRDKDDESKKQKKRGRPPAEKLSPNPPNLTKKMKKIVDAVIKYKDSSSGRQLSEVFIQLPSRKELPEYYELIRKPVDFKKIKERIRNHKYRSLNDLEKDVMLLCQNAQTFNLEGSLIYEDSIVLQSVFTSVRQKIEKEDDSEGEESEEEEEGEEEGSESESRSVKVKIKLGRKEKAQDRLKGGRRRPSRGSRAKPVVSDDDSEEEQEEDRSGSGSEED
von Hippel-Lindau disease tumor suppressor/SWI/SNF-related matrix-associated actin-dependent regulator of chromatin subfamily A member 4, sequence (P40337 whole entry): as the sequence (P40337 whole entry) above
MAP kinase-activated protein kinase 3 (Homo sapiens), sequence (Q16644 whole entry, looked up): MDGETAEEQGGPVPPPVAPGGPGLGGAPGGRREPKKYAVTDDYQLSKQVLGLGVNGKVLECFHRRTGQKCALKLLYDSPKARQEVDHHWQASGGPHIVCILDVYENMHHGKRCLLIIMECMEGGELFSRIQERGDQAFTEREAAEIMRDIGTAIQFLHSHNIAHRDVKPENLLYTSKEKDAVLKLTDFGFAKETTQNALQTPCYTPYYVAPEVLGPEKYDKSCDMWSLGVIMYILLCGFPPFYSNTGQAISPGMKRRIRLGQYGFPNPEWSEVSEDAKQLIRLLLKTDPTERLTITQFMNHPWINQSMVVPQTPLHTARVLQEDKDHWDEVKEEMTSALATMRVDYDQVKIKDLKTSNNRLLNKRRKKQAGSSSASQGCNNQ

pIC50 [15] | Compound | GI50 [2] [nM] | hepatic extraction ratio at 1 h [3] | DC50 [4] [nM] | concentration at 96 h [5] [ng/g] | half-life [6] [min] | Ratio [7] | clearance [8] [mL/min/kg] | Activity [9] [%] | concentration at 24 h [10] [nM] | fraction unbound at 0.25 h [11] | GI50 [12] [nM] | DC50 [13] [nM] | Activity [14] [%] | also measured
 | Cc1ncsc1-c1ccc([C@H](C)NC(=O)[C@@H]2C[C@@H](O)CN2C(=O)[C@@H](c2cc(N3CCC(CN4CCC(O[C@H]5C[C@H](Oc6cc(N7C8CCC7CN(c7cc(-c9ccccc9)nnc7N)C8)ccn6)C5)CC4)CC3)no2)C(C)C)cc1 | > 5000 |  |  |  |  |  |  |  |  |  |  |  |  | pKd [1]: 5.07
 | Cc1ncsc1-c1ccc([C@H](C)NC(=O)[C@@H]2C[C@@H](O)CN2C(=O)[C@@H](c2cc(N3CCC(O[C@H]4C[C@H](Oc5cc(N6C7CCC6CN(c6cc(-c8ccccc8O)nnc6N)C7)ccn5)C4)CC3)no2)C(C)C)cc1 | 0.3 | 0.14 | 1.8 | 175 | 84 | 13 | 9.2 | 22 | 112 | 0.019 | 4.4 | 0.14 | 70 | 
8.92 | COc1cc(N2C3CCC2CN(c2cc(-c4ccccc4O)nnc2N)C3)ccn1 | > 300 |  |  |  |  |  |  |  |  |  | > 300 |  |  | 
 | Cc1ncsc1-c1ccc([C@H](C)NC(=O)[C@@H]2C[C@@H](O)CN2C(=O)[C@@H](c2cc(OCCN3CCN(CCOc4cc(N5C6CCC5CN(c5cc(-c7ccccc7O)nnc5N)C6)ccn4)[C@H](C)C3)no2)C(C)C)cc1 | 0.26 | 0.83 | 0.71 | 76 |  | 13 |  | 0 | 22 | 0.015 | 12 | 0.055 | 0 | 
7.74 | COc1cc(N2CCN(c3cc(-c4ccccc4O)nnc3N)CC2)ccn1 | > 300 |  |  |  |  |  |  |  |  |  | > 300 |  |  | 
 | Cc1ncsc1-c1ccc([C@H](C)NC(=O)[C@@H]2C[C@@H](O)CN2C(=O)[C@@H](c2cc(OCCN3CCC(O[C@H]4C[C@H](Oc5cc(N6C7CCC6CN(c6cc(-c8ccccc8)nnc6N)C7)ccn5)C4)CC3)no2)C(C)C)cc1 | > 5000 |  |  |  |  |  |  |  |  |  |  |  |  | pKd [1]: 4.99
8.57 | COCCOc1cc(N2C3CCC2CN(c2cc(-c4ccccc4O)nnc2N)C3)ccn1 |  |  |  |  |  |  |  |  |  |  |  |  |  | 
 | Cc1ncsc1-c1ccc([C@H](C)NC(=O)[C@@H]2C[C@@H](O)CN2C(=O)[C@@H](c2cc(OCCN3CCN(CCOc4cc(N5C6CCC5CN(c5cc(-c7ccccc7O)nnc5N)C6)ccn4)CC3)no2)C(C)C)cc1 | 0.17 | 0.72 | 1.5 |  |  | 22 |  |  |  | 0.016 | 7 | 0.068 |  | T1/2 [16]: 6 s; Ratio [17]: 0.33
 | Cc1ncsc1-c1ccc([C@H](C)NC(=O)[C@@H]2C[C@@H](O)CN2C(=O)[C@@H](c2cc(N3CCN(CCN4CCC(O[C@H]5C[C@H](Oc6cc(N7C8CCC7CN(c7cc(-c9ccccc9O)nnc7N)C8)ccn6)C5)CC4)CC3)no2)C(C)C)cc1 | 1.3 | 0.4 | 3.2 | 840 | 780 | 38 | 9.6 | 28 | 108 | 0.034 | 11 | 0.085 | 56 | 
 | Cc1ncsc1-c1ccc([C@H](C)NC(=O)[C@@H]2C[C@@H](O)CN2C(=O)[C@@H](c2cc(OCCN3CCC(O[C@H]4C[C@H](Oc5cc(N6C7CCC6CN(c6cc(-c8ccccc8O)nnc6N)C7)ccn5)C4)CC3)no2)C(C)C)cc1 | 0.64 |  |  | 158 | 156 |  | 22 | 4 | 26 | 0.027 | 24 |  | 64 | Activity [18]: Active; Activity [19]: Non-Toxic; Activity [20]: Active; Activity [21]: Active; Activity [22]: Toxic; Activity [23]: Active; Activity [24]: Toxic; Activity [25]: Non-Toxic; Activity [26]: Active; Activity [27]: Active
